We go through one compound from US12624050B2, “Three fused ring derivative-containing salt or crystal form and pharmaceutical composition thereof” (Shanghai Hansoh Biomedical Co., Ltd., priority 2019, dated 2026).

The data set can be described thus: Screening of salts of the compound with counter ion acids. Format: physicochemical. The following applies: for Results (salt screening): acetone 0.2 mL, solid-liquid reaction, room temperature; for Results (salt screening) / Post-treatment (salt screening): base:acid=1:1.2; for Experimental results (salt screening): natural evaporation at room temperature; for Post-treatment (salt screening): suspended in 0.2 mL of methanol at 50° C. The procedure: 300 mg of free base was weighed, 15 mL of THE was added, and the mixture was heated to 50° C. to dissolve completely. The solution of the free base in THE was divided into […], and a certain amount of acid was added to each part (molar reaction ratio of base:acid=1:1.2), detailed as follows:
20 mg of free base was weighed, 0.2 mL of acetone was added, and the mixture was stirred and suspended at room temperature. Acid (molar reaction ratio of base:acid=1:1.2) was added to the suspension system for reaction, detailed as follows: […]
20 mg of free base was weighed, 0.2 mL of methanol was added, and the mixture was stirred and suspended at 50° C. Acid (molar reaction ratio of base:acid=1:1.2) was added to the suspension system for reaction, detailed as follows:
THF was used as solvent in No. 1 to 10, and the free base was dissolved in THE to form a clear solution and then acid was added. Ethanol was used as solvent in No. 11 to 14, the free base was suspended in ethanol, and a clear solution formed after adding an acid. The clear solution formed in No. 1-14 was placed at room temperature without sealing the container to evaporate the solvent.

[1] abbreviates: acid: 1M oxalic acid in ethanol.
The mark [2] stands for this setting: acid: 1M phosphoric acid in ethanol.

For the compound `C[C@H](Nc1ccc2c(c1)OCCn1cc(N3C(=O)SC[C@H]3C(F)F)nc1-2)C(N)=O` [Example 22, (S)-2-((2-((R)-4-(difluoromethyl)-2-oxothiazolidin-3-yl)-5,6-dihydrobenzo[f]imidazo[1,2-d][1,4]oxazepin-9-yl)amino)propionamide], the “Results (salt screening)” value is “No reaction, free base remained” (acid: 1M maleic acid in ethanol); “Mesylate was obtained” (acid: 1M methanesulfonic acid in ethanol); “No reaction, free base remained” under setting [1]; “No reaction, free base remained” under setting [2]. Besides, the “Experimental results (salt screening)” value (THF as solvent, acid: Adipic acid) is on record as “Oil formed”; the “Experimental results (salt screening)” value (THF as solvent, acid: Citric acid) is “Oil formed”; the “Experimental results (salt screening)” value (THF as solvent, acid: Fumaric acid) was “Oil formed”; the “Experimental results (salt screening)” value (THF as solvent, acid: Glycolic acid) is listed as “Oil formed”; the “Experimental results (salt screening)” value (THF as solvent, acid: Maleic acid) is on record as “Oil formed”; the “Experimental results (salt screening)” value (THF as solvent, acid: Malic acid) is “Oil formed”. Besides, the “Experimental results (salt screening)” value by setting is: (THF as solvent, acid: Oxalic acid) “Oil formed”; (THF as solvent, acid: Phosphoric acid) “Oil formed”; (THF as solvent, acid: Succinic acid) “Oil formed”; (THF as solvent, acid: Tartaric acid) “Oil formed”; (ethanol as solvent, acid: Benzenesulfonic acid) “Amorphous”; (ethanol as solvent, acid: Hydrochloric acid) “Amorphous”. The “Experimental results (salt screening)” value is on record as “Amorphous” (ethanol as solvent, acid: Isethionic acid) and “Amorphous” (ethanol as solvent, acid: p-Toluenesulfonic acid). The “Post-treatment (salt screening)” value runs as follows: (acid: 1M maleic acid in methanol) “No reaction, free base remained”; under setting [1], “No reaction, free base remained”; under setting [2], “No reaction, free base remained”.
